Source: patent publication US20050176760A1, “N-'4-(2-imino-pyrrolidin-1-yl)phenyl!-acetamide and corresponding piperidine derivatives as factor xa inhibitors for the treatment of thrombo-embolic diseases” (Merck Patent GmbH, priority 2002, published 2005)

Columns and labels:
TF/FVIIa = TF/FVIIa (Homo sapiens, UniProt P08709); assay: TF/factor VIIa inhibition (TF/FVIIa-IC50); type: biochemical; settings: Table 1, pharmacological data, 'Affinity to receptors'
Source text: The inhibition of factor Vila by the compounds according to the invention and the measurement of the anticoagulant and antithrombotic activity can be determined by conventional in-vitro or in-vivo methods. A conventional method for the measurement of the inhibition of factor VIIa is described, for example, by H. F. Ronning et al. in Thrombosis Research 1996, 84, 73-81.

FXa = FXa (Homo sapiens, UniProt P00742); assay: Factor Xa inhibition (FXa-IC50); type: biochemical; settings: Table 1, pharmacological data, 'Affinity to receptors'
Chain of FXa (P00742 235-488 limits assumed): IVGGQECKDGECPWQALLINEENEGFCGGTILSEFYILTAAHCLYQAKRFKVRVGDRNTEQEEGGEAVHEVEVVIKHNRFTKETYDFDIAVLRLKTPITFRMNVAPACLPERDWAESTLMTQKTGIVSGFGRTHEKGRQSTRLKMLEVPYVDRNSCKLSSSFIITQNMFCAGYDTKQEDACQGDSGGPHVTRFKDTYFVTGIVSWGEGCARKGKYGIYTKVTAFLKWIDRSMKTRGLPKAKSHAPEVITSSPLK
Chain of FXa (P00742 41-179 limits assumed): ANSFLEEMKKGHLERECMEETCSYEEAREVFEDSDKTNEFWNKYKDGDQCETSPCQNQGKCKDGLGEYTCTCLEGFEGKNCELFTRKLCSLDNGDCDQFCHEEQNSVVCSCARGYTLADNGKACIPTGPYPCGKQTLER
Source text: The inhibition of factor Xa by the compounds according to the invention and the measurement of the anticoagulant and antithrombotic activity can be determined by conventional in-vitro or in-vivo methods. A suitable method is described, for example, by J. Hauptmann et al. in Thrombosis and Haemostasis 1990, 63, 220-223.
The inhibition of factor Xa can be measured, for example by the method of T. Hara et al. in Thromb. Haemostas. 1994, 71, 314-319.

Chain of TF/FVIIa (P08709 213-466 limits assumed): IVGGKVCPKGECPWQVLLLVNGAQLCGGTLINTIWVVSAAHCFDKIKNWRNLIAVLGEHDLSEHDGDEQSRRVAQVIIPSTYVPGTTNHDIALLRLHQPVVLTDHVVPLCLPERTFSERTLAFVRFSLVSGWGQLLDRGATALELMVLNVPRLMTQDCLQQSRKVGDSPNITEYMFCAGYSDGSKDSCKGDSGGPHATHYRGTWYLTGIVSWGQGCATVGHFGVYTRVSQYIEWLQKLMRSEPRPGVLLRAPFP
Chain of TF/FVIIa (P08709 61-212 limits assumed): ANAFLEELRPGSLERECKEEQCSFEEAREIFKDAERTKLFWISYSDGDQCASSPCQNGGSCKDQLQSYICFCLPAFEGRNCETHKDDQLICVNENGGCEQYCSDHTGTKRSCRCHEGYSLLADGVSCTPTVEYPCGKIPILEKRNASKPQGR
Chain of TF/FVIIa (P13726 33-295 partner): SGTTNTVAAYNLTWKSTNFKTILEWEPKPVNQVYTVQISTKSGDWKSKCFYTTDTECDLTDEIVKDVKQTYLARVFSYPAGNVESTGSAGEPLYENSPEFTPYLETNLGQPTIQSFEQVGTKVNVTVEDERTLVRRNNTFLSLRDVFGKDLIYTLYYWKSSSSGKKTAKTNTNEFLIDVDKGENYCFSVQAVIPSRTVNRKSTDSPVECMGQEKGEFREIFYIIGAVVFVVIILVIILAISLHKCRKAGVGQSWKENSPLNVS

IC50 (TF/FVIIa) | IC50 (FXa) | SMILES
0.13 µM | 0.066 µM | Cc1cc(NC(=O)C(Nc2cccc(CN)c2)c2ccccc2Cl)ccc1N1CCCC1=NCCN(C)C (stereo not shown) [DA, 2-(3-aminomethylphenylamino)-N-[3-methyl-4-(2-(2-dimethylaminoethylimino)pyrrolidin-1-yl)phenyl]-2-(2-chloro)phenyl-acetamide]
0.099 µM | 0.058 µM | N=C1CCCN1c1ccc(NC(=O)C(Nc2cccc(CN)c2)c2ccccc2)cc1Cl (racemic) [AB, (R, S)-2-(3-aminomethylphenylamino)-N-[3-chloro-4-(2-iminopyrrolidin-1-yl)phenyl]-2-phenylacetamide]
0.49 µM | 0.68 µM | CON=C1CCCCN1c1ccc(NC(=O)[C@H](CC(C)C)Oc2ccc3ccnc(N)c3c2)cc1 (single isomer, unassigned) [BA]
0.29 µM | 0.22 µM | NCc1cccc(NC(C(=O)Nc2ccc(N3CCCC3=NO)c(Cl)c2)c2ccccc2)c1 (racemic) [AA, (R, S)-2-(3-aminomethylphenylamino)-N-[3-chloro-4-(2-hydroxyiminopyrrolidin-1-yl)phenyl]-2-phenylacetamide]
2 µM | 2.7 µM | CC(C)C[C@H](Oc1ccc2ccnc(N)c2c1)C(=O)Nc1ccc(N2CCCCC2=N)cc1 [BB, (S)-2-(1-aminoisoquinolin-7-yloxy)-N-[4-(2-iminopiperidin-1-yl)phenyl]-4-methylvaleramide]
